Assays:
Assay type in all cases: in vivo
[1] = test system: ragweed (common ragweed, Ambrosia artemisiifolia); assay: Test A1 postemergence, ragweed; details: 0 to 100 scale (0 no effect, 100 complete control); for Ragweed plant response rating: 31 g ai/ha, postemergence; for Plant response rating, Ragweed: Postemergence, 125 g ai/ha, 10 days
Summary of the method: (§1)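 Herbicidal response was scored on plants treated either preemergence, by directed spray onto soil of a loam–sand blend after sowing, or postemergence on potted plants at the one- to two-leaf stage, 2–10 cm high. Test chemicals were carried in a non-phytotoxic solvent mix with surfactant.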

corn (Zea mays) = assay: Test A1 postemergence, corn; details: 0 to 100 scale (0 no effect, 100 complete control); for Corn plant response rating: 31 g ai/ha, postemergence; for Plant response rating, Corn: Postemergence, 125 g ai/ha, 10 days
Summary of the method: (§2)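 Both timings started from seed in a loam-sand blend. Preemergence pots got a directed soil application immediately; postemergence pots were sprayed when seedlings had one or two leaves and stood 2–10 cm. Each compound was prepared in a non-phytotoxic solvent plus surfactant.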

[2] = test system: Ryegrass, Italian (Italian ryegrass, Lolium multiflorum); assay: Test A1 postemergence, Ryegrass, Italian; details: 0 to 100 scale (0 no effect, 100 complete control); for Ryegrass, Italian plant response rating: 31 g ai/ha, postemergence; for Plant response rating, Ryegrass, Italian: Postemergence, 125 g ai/ha, 10 days
Summary of the method: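 Plants grown in pots of loam/sand mix; preemergence = soil-directed spray on seeded pots, postemergence = spray at 1–2 leaves, height 2–10 cm; test chemicals formulated in non-phytotoxic solvent with surfactant.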

[3] = test system: Oat, Wild (wild oat, Avena fatua); assay: Test A1 postemergence, Oat, Wild; details: 0 to 100 scale (0 no effect, 100 complete control); for Oat, Wild plant response rating: 31 g ai/ha, postemergence; for Plant response rating, Oat, Wild: Postemergence, 125 g ai/ha, 10 days
Summary of the method: as §1

[4] = test system: ragweed (common ragweed, Ambrosia artemisiifolia); assay: Test A1 preemergence, ragweed
Summary of the method: as §2

[5] = 31 g ai/ha, 0 to 100 scale (0 no effect, 100 complete control)
[6] = 125 g ai/ha, 0 to 100 scale, 0 no effect, 100 complete control
[7] = 125 g ai/ha, 0 to 100 scale (0 no effect, 100 complete control)

Compound	Ragweed plant response rating [1]	Plant response rating, Ragweed [1]	Corn plant response rating (corn (Zea mays))	Plant response rating, Corn (corn (Zea mays))	Ryegrass, Italian plant response rating [2]	Plant response rating, Ryegrass, Italian [2]	Oat, Wild plant response rating [3]	Plant response rating, Oat, Wild [3]	Plant response rating, Ragweed [4, 5]	Plant response rating, Ragweed [4, 6]	Plant response rating, Ragweed [4, 7]
Cc1c(NS(=O)(=O)C(F)(F)F)cc(C2=NOC3(CCCC3)C2)c(C)c1C [Compound 380]	40	60	0	50	0	60	0	20	0	40	
Cc1c(C2=NOC3(CCCC3)C2)cc(N(COC(=O)C(C)(C)C)S(=O)(=O)C(F)(F)F)c(C)c1C [Compound 382]	20	40	0	0	0	0	0	0	0	0	
Cc1cc(C)c(N(COC(=O)C(C)(C)C)S(=O)(=O)C(F)(F)F)cc1C1=NOC(C(C)C)C1 (centres unmarked) [Compound 383]	30	40	0	0	0	0	0	10	0	0	
Cc1cc(C)c(N2CC3(CCCCC3)CC2=O)cc1NS(=O)(=O)C(F)(F)F [Compound 392]	30	70	0	0	0	0	0	0	0	0	
Cc1cc(Cl)c(NS(=O)(=O)C(F)(F)F)cc1N1CCC2(CCCCC2)C1=O [Compound 393]	60	70	0	30	30	50	0	10	40	90	
COC1CCC2(CC1)CCN(c1cc(NS(=O)(=O)C(F)(F)F)c(C)cc1C)C2=O (centres unmarked) [Compound 398]	20	80	30	60	50	90	0	10	20	80	
Cc1cc(C)c(N(S(=O)(=O)C(F)(F)F)S(=O)(=O)C(F)(F)F)cc1N1CCC2(CCC(C(F)(F)F)CC2)C1=O (centres unmarked) [Compound 399]	50	90	0	10	0	70	10	40	0	60	
Cc1cc(C)c(N2CCC3(CCC(C(F)(F)F)CC3)C2=O)cc1NS(=O)(=O)C(F)(F)F (centres unmarked) [Compound 400]	30	80	0	0	0	0	0	0	70	90	
Cc1cc(C)c(N(COC(=O)C(C)(C)C)S(=O)(=O)C(F)(F)F)cc1N1CCC2(CCC(C)CC2)C1=O (centres unmarked) [Compound 401]	60	90	10	60	0	0	0	30	0	10	
Cc1cc(C)c(N2CCC3(CCC(C)CC3)C2=O)cc1NS(=O)(=O)C(F)(F)F (centres unmarked) [Compound 402]	50	50	0	0	0	0	10	10	20	50	
Cc1cc(C)c(N(COC(=O)C(C)(C)C)S(=O)(=O)C(F)(F)F)cc1N1CCC2(CCC(C(F)(F)F)CC2)C1=O (centres unmarked) [Compound 403]	0	50	0	0	0	0	0	30	0	20	
Cc1cc(C)c(N2Cc3cccc(C)c3C2=O)cc1NS(=O)(=O)Cl [Compound 408]	40	90	80	80	70	80	70	70			50
COc1cccc2c1C(=O)N(c1cc(N(COC(=O)C(C)(C)C)S(=O)(=O)Cl)c(C)cc1C)C2 [Compound 413]	60	90	30	30	0	0	0	0			90
CCOc1cccc2c1C(=O)N(c1cc(N(COC(=O)C(C)(C)C)S(=O)(=O)Cl)c(C)cc1C)C2 [Compound 414]	40	70	0	0	0	0	0	0			20
Cc1cc(C)c(N2Cc3cccc(Br)c3C2=O)cc1NS(=O)(=O)Cl [Compound 415]	30	70	0	50	0	60	10	30			90
